# Test results: ChEMBL document CHEMBL5724914, “Linking interpersonal differences in gut microbiota composition and drug biotransformation activity” (2024)
# Assay: (§1) The drug is tested on Z-030 corresponding to mouse gut metagenome with ENA study accession number: PRJEB37062 and ENA sample accession number: ERS12561829 for biotransformation under anaerobic condition. The drug concentrations were measured over 9 timepoints collected between 0 and 24 hours of incubation by liquid-chromatography-coupled mass spectrometry (LC–MS)
# Settings: 2 µM
# Also: call rule not given here.
row,Bacterial Biotransformation,Compound
1,Compound NOT metabolized,CCCCC(=O)N(Cc1ccc(-c2ccccc2-c2nnn[nH]2)cc1)[C@H](C(=O)O)C(C)C
2,Compound NOT metabolized,CN(C)CCC=C1c2ccccc2C=Cc2ccccc21 [CYCLOBENZAPRINE]
3,Compound NOT metabolized,CCN(CC)CCNC(=O)c1cc(Cl)c(N)cc1OC [METOCLOPRAMIDE]
4,Compound NOT metabolized,Cc1ccccc1N1C(=O)c2cc(S(N)(=O)=O)c(Cl)cc2NC1C (stereo not given) [METOLAZONE]

# Assay: as §1, with “Z-028” for “Z-030”, “ERS12561827” for “ERS12561829”
# Settings: 2 µM
row,Bacterial Biotransformation,Compound
1,Compound NOT metabolized,CCCCC(=O)N(Cc1ccc(-c2ccccc2-c2nnn[nH]2)cc1)[C@H](C(=O)O)C(C)C
2,Compound NOT metabolized,CN(C)CCC=C1c2ccccc2C=Cc2ccccc21 [CYCLOBENZAPRINE]
3,Compound NOT metabolized,CCN(CC)CCNC(=O)c1cc(Cl)c(N)cc1OC [METOCLOPRAMIDE]
4,Compound NOT metabolized,Cc1ccccc1N1C(=O)c2cc(S(N)(=O)=O)c(Cl)cc2NC1C (stereo not given) [METOLAZONE]

# Assay: as §1, with “Z-027” for “Z-030”, “to” for “to mouse gut”, “ERS12561826” for “ERS12561829”
# Settings: 2 µM
row,Bacterial Biotransformation,Compound
1,Compound NOT metabolized,CCCCC(=O)N(Cc1ccc(-c2ccccc2-c2nnn[nH]2)cc1)[C@H](C(=O)O)C(C)C
2,Compound NOT metabolized,CN(C)CCC=C1c2ccccc2C=Cc2ccccc21 [CYCLOBENZAPRINE]
3,Compound NOT metabolized,CCN(CC)CCNC(=O)c1cc(Cl)c(N)cc1OC [METOCLOPRAMIDE]
4,Compound NOT metabolized,Cc1ccccc1N1C(=O)c2cc(S(N)(=O)=O)c(Cl)cc2NC1C (stereo not given) [METOLAZONE]

# Assay: as §1, with “Z-026” for “Z-030”, “to” for “to mouse gut”, “ERS12561825” for “ERS12561829”
# Settings: 2 µM
row,Bacterial Biotransformation,Compound
1,Compound NOT metabolized,CCCCC(=O)N(Cc1ccc(-c2ccccc2-c2nnn[nH]2)cc1)[C@H](C(=O)O)C(C)C
2,Compound NOT metabolized,CN(C)CCC=C1c2ccccc2C=Cc2ccccc21 [CYCLOBENZAPRINE]
3,Compound NOT metabolized,CCN(CC)CCNC(=O)c1cc(Cl)c(N)cc1OC [METOCLOPRAMIDE]
4,Compound metabolized,Cc1ccccc1N1C(=O)c2cc(S(N)(=O)=O)c(Cl)cc2NC1C (stereo not given) [METOLAZONE]

# Assay: as §1, with “Z-024” for “Z-030”, “pig” for “mouse”, “ERS12561823” for “ERS12561829”
# Settings: 2 µM
row,Bacterial Biotransformation,Compound
1,Compound NOT metabolized,CCCCC(=O)N(Cc1ccc(-c2ccccc2-c2nnn[nH]2)cc1)[C@H](C(=O)O)C(C)C
2,Compound metabolized,CN(C)CCC=C1c2ccccc2C=Cc2ccccc21 [CYCLOBENZAPRINE]
3,Compound NOT metabolized,CCN(CC)CCNC(=O)c1cc(Cl)c(N)cc1OC [METOCLOPRAMIDE]
4,Compound NOT metabolized,Cc1ccccc1N1C(=O)c2cc(S(N)(=O)=O)c(Cl)cc2NC1C (stereo not given) [METOLAZONE]

# Assay: as §1, with “Z-020” for “Z-030”, “rabbit” for “mouse”, “ERS12561819” for “ERS12561829”
# Settings: 2 µM
row,Bacterial Biotransformation,Compound
1,Compound NOT metabolized,CCCCC(=O)N(Cc1ccc(-c2ccccc2-c2nnn[nH]2)cc1)[C@H](C(=O)O)C(C)C
2,Compound NOT metabolized,CN(C)CCC=C1c2ccccc2C=Cc2ccccc21 [CYCLOBENZAPRINE]
3,Compound NOT metabolized,CCN(CC)CCNC(=O)c1cc(Cl)c(N)cc1OC [METOCLOPRAMIDE]
4,Compound NOT metabolized,Cc1ccccc1N1C(=O)c2cc(S(N)(=O)=O)c(Cl)cc2NC1C (stereo not given) [METOLAZONE]

# Assay: as §1, with “Z-010” for “Z-030”, “to” for “to mouse gut”, “ERS12561810” for “ERS12561829”
# Settings: 2 µM
row,Bacterial Biotransformation,Compound
1,Compound NOT metabolized,CCCCC(=O)N(Cc1ccc(-c2ccccc2-c2nnn[nH]2)cc1)[C@H](C(=O)O)C(C)C
2,Compound metabolized,CN(C)CCC=C1c2ccccc2C=Cc2ccccc21 [CYCLOBENZAPRINE]
3,Compound NOT metabolized,CCN(CC)CCNC(=O)c1cc(Cl)c(N)cc1OC [METOCLOPRAMIDE]
4,Compound NOT metabolized,Cc1ccccc1N1C(=O)c2cc(S(N)(=O)=O)c(Cl)cc2NC1C (stereo not given) [METOLAZONE]

# Assay: as §1, with “Z-004” for “Z-030”, “to” for “to mouse gut”, “ERS12561804” for “ERS12561829”
# Settings: 2 µM
row,Bacterial Biotransformation,Compound
1,Compound NOT metabolized,CCCCC(=O)N(Cc1ccc(-c2ccccc2-c2nnn[nH]2)cc1)[C@H](C(=O)O)C(C)C
2,Compound metabolized,CN(C)CCC=C1c2ccccc2C=Cc2ccccc21 [CYCLOBENZAPRINE]
3,Compound NOT metabolized,CCN(CC)CCNC(=O)c1cc(Cl)c(N)cc1OC [METOCLOPRAMIDE]
4,Compound NOT metabolized,Cc1ccccc1N1C(=O)c2cc(S(N)(=O)=O)c(Cl)cc2NC1C (stereo not given) [METOLAZONE]

# Assay: as §1, with “Z-002” for “Z-030”, “rabbit” for “mouse”, “ERS12561802” for “ERS12561829”
# Settings: 2 µM
row,Bacterial Biotransformation,Compound
1,Compound NOT metabolized,CCCCC(=O)N(Cc1ccc(-c2ccccc2-c2nnn[nH]2)cc1)[C@H](C(=O)O)C(C)C
2,Compound metabolized,CN(C)CCC=C1c2ccccc2C=Cc2ccccc21 [CYCLOBENZAPRINE]
3,Compound NOT metabolized,CCN(CC)CCNC(=O)c1cc(Cl)c(N)cc1OC [METOCLOPRAMIDE]
4,Compound NOT metabolized,Cc1ccccc1N1C(=O)c2cc(S(N)(=O)=O)c(Cl)cc2NC1C (stereo not given) [METOLAZONE]

# Assay: as §1, with “Z-001” for “Z-030”, “ERS12561801” for “ERS12561829”
# Settings: 2 µM
row,Bacterial Biotransformation,Compound
1,Compound NOT metabolized,CCCCC(=O)N(Cc1ccc(-c2ccccc2-c2nnn[nH]2)cc1)[C@H](C(=O)O)C(C)C
2,Compound metabolized,CN(C)CCC=C1c2ccccc2C=Cc2ccccc21 [CYCLOBENZAPRINE]
3,Compound NOT metabolized,CCN(CC)CCNC(=O)c1cc(Cl)c(N)cc1OC [METOCLOPRAMIDE]
4,Compound NOT metabolized,Cc1ccccc1N1C(=O)c2cc(S(N)(=O)=O)c(Cl)cc2NC1C (stereo not given) [METOLAZONE]

# Assay: as §1, with “WLS-370” for “Z-030”, “human” for “mouse”, “ERS12561793” for “ERS12561829”
# Settings: 2 µM
row,Bacterial Biotransformation,Compound
1,Compound metabolized,CCCCC(=O)N(Cc1ccc(-c2ccccc2-c2nnn[nH]2)cc1)[C@H](C(=O)O)C(C)C
2,Compound metabolized,CN(C)CCC=C1c2ccccc2C=Cc2ccccc21 [CYCLOBENZAPRINE]
3,Compound NOT metabolized,CCN(CC)CCNC(=O)c1cc(Cl)c(N)cc1OC [METOCLOPRAMIDE]
4,Compound NOT metabolized,Cc1ccccc1N1C(=O)c2cc(S(N)(=O)=O)c(Cl)cc2NC1C (stereo not given) [METOLAZONE]

# Assay: as §1, with “WLS-170” for “Z-030”, “human” for “mouse”, “ERS12561762” for “ERS12561829”
# Settings: 2 µM
row,Bacterial Biotransformation,Compound
1,Compound metabolized,CCCCC(=O)N(Cc1ccc(-c2ccccc2-c2nnn[nH]2)cc1)[C@H](C(=O)O)C(C)C
2,Compound metabolized,CN(C)CCC=C1c2ccccc2C=Cc2ccccc21 [CYCLOBENZAPRINE]
3,Compound NOT metabolized,CCN(CC)CCNC(=O)c1cc(Cl)c(N)cc1OC [METOCLOPRAMIDE]
4,Compound NOT metabolized,Cc1ccccc1N1C(=O)c2cc(S(N)(=O)=O)c(Cl)cc2NC1C (stereo not given) [METOLAZONE]

# Assay: as §1, with “WLS-090” for “Z-030”, “human” for “mouse”, “ERS12561753” for “ERS12561829”
# Settings: 2 µM
row,Bacterial Biotransformation,Compound
1,Compound metabolized,CCCCC(=O)N(Cc1ccc(-c2ccccc2-c2nnn[nH]2)cc1)[C@H](C(=O)O)C(C)C
2,Compound metabolized,CN(C)CCC=C1c2ccccc2C=Cc2ccccc21 [CYCLOBENZAPRINE]
3,Compound NOT metabolized,CCN(CC)CCNC(=O)c1cc(Cl)c(N)cc1OC [METOCLOPRAMIDE]
4,Compound metabolized,Cc1ccccc1N1C(=O)c2cc(S(N)(=O)=O)c(Cl)cc2NC1C (stereo not given) [METOLAZONE]

# Settings: human gut metagenome, 24 h, 2 µM
row,Bacterial Biotransformation,Compound
1,Compound metabolized,CCCCC(=O)N(Cc1ccc(-c2ccccc2-c2nnn[nH]2)cc1)[C@H](C(=O)O)C(C)C
2,Compound metabolized,CN(C)CCC=C1c2ccccc2C=Cc2ccccc21 [CYCLOBENZAPRINE]
3,Compound NOT metabolized,CCN(CC)CCNC(=O)c1cc(Cl)c(N)cc1OC [METOCLOPRAMIDE]
4,Compound metabolized,Cc1ccccc1N1C(=O)c2cc(S(N)(=O)=O)c(Cl)cc2NC1C (stereo not given) [METOLAZONE]

# Settings: human gut metagenome, 24 h, 2 µM
# Remark: another data set of the same source
row,Bacterial Biotransformation,Compound
1,Compound metabolized,CCCCC(=O)N(Cc1ccc(-c2ccccc2-c2nnn[nH]2)cc1)[C@H](C(=O)O)C(C)C
2,Compound metabolized,CN(C)CCC=C1c2ccccc2C=Cc2ccccc21 [CYCLOBENZAPRINE]
3,Compound NOT metabolized,CCN(CC)CCNC(=O)c1cc(Cl)c(N)cc1OC [METOCLOPRAMIDE]
4,Compound NOT metabolized,Cc1ccccc1N1C(=O)c2cc(S(N)(=O)=O)c(Cl)cc2NC1C (stereo not given) [METOLAZONE]

# Settings: human gut metagenome, 24 h, 2 µM
# Remark: another data set of the same source
row,Bacterial Biotransformation,Compound
1,Compound metabolized,CCCCC(=O)N(Cc1ccc(-c2ccccc2-c2nnn[nH]2)cc1)[C@H](C(=O)O)C(C)C
2,Compound NOT metabolized,CN(C)CCC=C1c2ccccc2C=Cc2ccccc21 [CYCLOBENZAPRINE]
3,Compound NOT metabolized,CCN(CC)CCNC(=O)c1cc(Cl)c(N)cc1OC [METOCLOPRAMIDE]
4,Compound NOT metabolized,Cc1ccccc1N1C(=O)c2cc(S(N)(=O)=O)c(Cl)cc2NC1C (stereo not given) [METOLAZONE]

# Settings: human gut metagenome, 24 h, 2 µM
# Remark: another data set of the same source
row,Bacterial Biotransformation,Compound
1,Compound metabolized,CCCCC(=O)N(Cc1ccc(-c2ccccc2-c2nnn[nH]2)cc1)[C@H](C(=O)O)C(C)C
2,Compound metabolized,CN(C)CCC=C1c2ccccc2C=Cc2ccccc21 [CYCLOBENZAPRINE]
3,Compound NOT metabolized,CCN(CC)CCNC(=O)c1cc(Cl)c(N)cc1OC [METOCLOPRAMIDE]
4,Compound metabolized,Cc1ccccc1N1C(=O)c2cc(S(N)(=O)=O)c(Cl)cc2NC1C (stereo not given) [METOLAZONE]

# Settings: human gut metagenome, 24 h, 2 µM
# Remark: another data set of the same source
row,Bacterial Biotransformation,Compound
1,Compound metabolized,CCCCC(=O)N(Cc1ccc(-c2ccccc2-c2nnn[nH]2)cc1)[C@H](C(=O)O)C(C)C
2,Compound metabolized,CN(C)CCC=C1c2ccccc2C=Cc2ccccc21 [CYCLOBENZAPRINE]
3,Compound NOT metabolized,CCN(CC)CCNC(=O)c1cc(Cl)c(N)cc1OC [METOCLOPRAMIDE]
4,Compound NOT metabolized,Cc1ccccc1N1C(=O)c2cc(S(N)(=O)=O)c(Cl)cc2NC1C (stereo not given) [METOLAZONE]

# Settings: human gut metagenome, 24 h, 2 µM
# Remark: another data set of the same source
row,Bacterial Biotransformation,Compound
1,Compound metabolized,CCCCC(=O)N(Cc1ccc(-c2ccccc2-c2nnn[nH]2)cc1)[C@H](C(=O)O)C(C)C
2,Compound metabolized,CN(C)CCC=C1c2ccccc2C=Cc2ccccc21 [CYCLOBENZAPRINE]
3,Compound NOT metabolized,CCN(CC)CCNC(=O)c1cc(Cl)c(N)cc1OC [METOCLOPRAMIDE]
4,Compound NOT metabolized,Cc1ccccc1N1C(=O)c2cc(S(N)(=O)=O)c(Cl)cc2NC1C (stereo not given) [METOLAZONE]

# Settings: human gut metagenome, 24 h, 2 µM
# Remark: another data set of the same source
row,Bacterial Biotransformation,Compound
1,Compound metabolized,CCCCC(=O)N(Cc1ccc(-c2ccccc2-c2nnn[nH]2)cc1)[C@H](C(=O)O)C(C)C
2,Compound metabolized,CN(C)CCC=C1c2ccccc2C=Cc2ccccc21 [CYCLOBENZAPRINE]
3,Compound NOT metabolized,CCN(CC)CCNC(=O)c1cc(Cl)c(N)cc1OC [METOCLOPRAMIDE]
4,Compound metabolized,Cc1ccccc1N1C(=O)c2cc(S(N)(=O)=O)c(Cl)cc2NC1C (stereo not given) [METOLAZONE]
